System: small cell lung cancer cell lines
Experiment: qRT-PCR time- and dosage-dependent expression change of candidate PD markers ASCL1, GRP, NOTCH1 in SCLC cell lines
Assay type: cell-based, human
Procedure: Seven small cell lung cancer cell lines were treated with 0.1 nM, 1 nM and 10 nM (trans)-N1-((1R,2S)-2-phenylcyclopropyl)cyclohexane-1,4-diamine or vehicle 24 hr, 96 hr and 7 days. Lysates were prepared by lysis in RNA lysis buffer containing 1% β-mercaptoethanol. RNA extraction was performed using a Maxwell 16 instrument and a Maxwell 16 LEV simply RNA cells Kit (Promega), according to the manufacturer's instructions. The mRNA expression levels of each cell line after treatment were then measured using qRT-PCR. The RT-qPCR reaction was conducted using a one-step kit (ABI), with a duplexed house-keeping control (Assay ID Hs02800695_m1) using the assays in the table below. The log 2 fold changes for each gene were calculated by comparing with the vehicle controlled samples at 24 hr sampling point.
Table 6 contains the dose-dependent effect on expression changes for candidate PD markers ASCL1 (Assay ID Hs04187546_g1), GRP (Assay ID Hs01107047_m1) and NOTCH1 (Assay ID Hs01062014_m1).

[1] = SHP-77, 0.1 nM, 24 hrs, vs vehicle at 24 hr
[2] = SHP-77, 0.1 nM, 96 hrs, vs vehicle at 24 hr
[3] = SHP-77, 0.1 nM, 168 hrs, vs vehicle at 24 hr
[4] = SHP-77, 1 nM, 24 hrs, vs vehicle at 24 hr
[5] = SHP-77, 1 nM, 96 hrs, vs vehicle at 24 hr
[6] = SHP-77, 1 nM, 168 hrs, vs vehicle at 24 hr
[7] = SHP-77, 10 nM, 24 hrs, vs vehicle at 24 hr
[8] = SHP-77, 10 nM, 96 hrs, vs vehicle at 24 hr
[9] = SHP-77, 10 nM, 168 hrs, vs vehicle at 24 hr

In the case of `N[C@H]1CC[C@H](N[C@@H]2C[C@H]2c2ccccc2)CC1` [RG6016, (trans)-N1-((1R,2S)-2-phenylcyclopropyl)cyclohexane-1,4-diamine], the “Log2_FC ASCL1” value (NCI-H510A, 1 nM, 168 hrs) is reported as −0.51, the “Log2_FC GRP” value (NCI-H510A, 1 nM, 168 hrs) is reported as −2.34 and the “Log2_FC NOTCH1” value (NCI-H510A, 1 nM, 168 hrs) is reported as 3.98. For the same molecule, the “Log2_FC ASCL1” value (NCI-H510A, 10 nM, 24 hrs) was −0.28, the “Log2_FC GRP” value (NCI-H510A, 10 nM, 24 hrs) was −0.35 and the “Log2_FC NOTCH1” value (NCI-H510A, 10 nM, 24 hrs) was 1.60. The “Log2_FC ASCL1” value (NCI-H510A, 10 nM, 96 hrs) was −0.55, the “Log2_FC GRP” value (NCI-H510A, 10 nM, 96 hrs) was −2.02 and the “Log2_FC NOTCH1” value (NCI-H510A, 10 nM, 96 hrs) was 2.89. The “Log2_FC ASCL1” value (NCI-H510A, 10 nM, 168 hrs) was −0.64, the “Log2_FC GRP” value (NCI-H510A, 10 nM, 168 hrs) was −2.53 and the “Log2_FC NOTCH1” value (NCI-H510A, 10 nM, 168 hrs) was 4.16. The “Log2_FC NOTCH1” value (NCI-H526, 0.1 nM, 24 hrs, vs vehicle at 24 hr) was 0.04, the “Log2_FC NOTCH1” value (NCI-H526, 0.1 nM, 96 hrs, vs vehicle at 24 hr) was 0.51 and the “Log2_FC NOTCH1” value (NCI-H526, 0.1 nM, 168 hrs, vs vehicle at 24 hr) was 0.55. For the same molecule, the “Log2_FC NOTCH1” value (NCI-H526, 1 nM, 24 hrs, vs vehicle at 24 hr) was 0.27, the “Log2_FC NOTCH1” value (NCI-H526, 1 nM, 96 hrs, vs vehicle at 24 hr) was 0.53 and the “Log2_FC NOTCH1” value (NCI-H526, 1 nM, 168 hrs, vs vehicle at 24 hr) was 0.96. For the same molecule, the “Log2_FC NOTCH1” value (NCI-H526, 10 nM, 24 hrs, vs vehicle at 24 hr) was 0.41, the “Log2_FC NOTCH1” value (NCI-H526, 10 nM, 96 hrs, vs vehicle at 24 hr) was 0.70 and the “Log2_FC NOTCH1” value (NCI-H526, 10 nM, 168 hrs, vs vehicle at 24 hr) was 0.33. For the same molecule, the “Log2_FC ASCL1” value (NCI-H1417, 0.1 nM, 24 hrs) was −0.19, the “Log2_FC GRP” value (NCI-H1417, 0.1 nM, 24 hrs) was 0.24 and the “Log2_FC NOTCH1” value (NCI-H1417, 0.1 nM, 24 hrs) was 0.14. The “Log2_FC ASCL1” value (NCI-H1417, 0.1 nM, 96 hrs) was 0.12, the “Log2_FC GRP” value (NCI-H1417, 0.1 nM, 96 hrs) was −0.25 and the “Log2_FC NOTCH1” value (NCI-H1417, 0.1 nM, 96 hrs) was 0.98. The “Log2_FC ASCL1” value (NCI-H1417, 0.1 nM, 168 hrs) was 0.13, the “Log2_FC GRP” value (NCI-H1417, 0.1 nM, 168 hrs) was −0.51 and the “Log2_FC NOTCH1” value (NCI-H1417, 0.1 nM, 168 hrs) was 0.86. The “Log2_FC ASCL1” value (NCI-H1417, 1 nM, 24 hrs) was −0.20, the “Log2_FC GRP” value (NCI-H1417, 1 nM, 24 hrs) was −0.25 and the “Log2_FC NOTCH1” value (NCI-H1417, 1 nM, 24 hrs) was 1.40. For the same molecule, the “Log2_FC ASCL1” value (NCI-H1417, 1 nM, 96 hrs) was −0.27, the “Log2_FC GRP” value (NCI-H1417, 1 nM, 96 hrs) was −1.06 and the “Log2_FC NOTCH1” value (NCI-H1417, 1 nM, 96 hrs) was 3.04. The “Log2_FC ASCL1” value (NCI-H1417, 1 nM, 168 hrs) was −0.19, the “Log2_FC GRP” value (NCI-H1417, 1 nM, 168 hrs) was −0.68 and the “Log2_FC NOTCH1” value (NCI-H1417, 1 nM, 168 hrs) was 2.55. For the same molecule, the “Log2_FC ASCL1” value (NCI-H1417, 10 nM, 24 hrs) was −0.25, the “Log2_FC GRP” value (NCI-H1417, 10 nM, 24 hrs) was −0.35 and the “Log2_FC NOTCH1” value (NCI-H1417, 10 nM, 24 hrs) was 1.86. The “Log2_FC ASCL1” value (NCI-H1417, 10 nM, 96 hrs) was −0.54, the “Log2_FC GRP” value (NCI-H1417, 10 nM, 96 hrs) was −1.13 and the “Log2_FC NOTCH1” value (NCI-H1417, 10 nM, 96 hrs) was 3.14. The “Log2_FC ASCL1” value (NCI-H1417, 10 nM, 168 hrs) was −0.66, the “Log2_FC GRP” value (NCI-H1417, 10 nM, 168 hrs) was −1.14 and the “Log2_FC NOTCH1” value (NCI-H1417, 10 nM, 168 hrs) was 3.22. For the same molecule, the “Log2_FC ASCL1” value (NCI-H1876, 0.1 nM, 24 hrs) was 0.16, the “Log2_FC GRP” value (NCI-H1876, 0.1 nM, 24 hrs) was 0.41 and the “Log2_FC NOTCH1” value (NCI-H1876, 0.1 nM, 24 hrs) was 0.82. For the same molecule, the “Log2_FC ASCL1” value (NCI-H1876, 0.1 nM, 96 hrs) was −0.58, the “Log2_FC GRP” value (NCI-H1876, 0.1 nM, 96 hrs) was −1.58 and the “Log2_FC NOTCH1” value (NCI-H1876, 0.1 nM, 96 hrs) was −0.76. For the same molecule, the “Log2_FC ASCL1” value (NCI-H1876, 0.1 nM, 168 hrs) was 0.35, the “Log2_FC NOTCH1” value (NCI-H1876, 0.1 nM, 168 hrs) was −0.59 and the “Log2_FC ASCL1” value (NCI-H1876, 1 nM, 24 hrs) was 0.04. The “Log2_FC GRP” value (NCI-H1876, 1 nM, 24 hrs) was 0.70, the “Log2_FC NOTCH1” value (NCI-H1876, 1 nM, 24 hrs) was 2.28 and the “Log2_FC ASCL1” value (NCI-H1876, 1 nM, 96 hrs) was −0.54. For the same molecule, the “Log2_FC GRP” value (NCI-H1876, 1 nM, 96 hrs) was −1.96, the “Log2_FC NOTCH1” value (NCI-H1876, 1 nM, 96 hrs) was 1.08 and the “Log2_FC ASCL1” value (NCI-H1876, 1 nM, 168 hrs) was 0.32. The “Log2_FC GRP” value (NCI-H1876, 1 nM, 168 hrs) was −0.54, the “Log2_FC ASCL1” value (NCI-H1876, 10 nM, 24 hrs) was −0.02 and the “Log2_FC GRP” value (NCI-H1876, 10 nM, 24 hrs) was 0.38. For the same molecule, the “Log2_FC NOTCH1” value (NCI-H1876, 10 nM, 24 hrs) was 2.67, the “Log2_FC ASCL1” value (NCI-H1876, 10 nM, 96 hrs) was −0.82 and the “Log2_FC NOTCH1” value (NCI-H1876, 10 nM, 96 hrs) was 2.07. The “Log2_FC ASCL1” value (NCI-H1876, 10 nM, 168 hrs) was 0.03, the “Log2_FC GRP” value (NCI-H1876, 10 nM, 168 hrs) was −1.38 and the “Log2_FC NOTCH1” value (NCI-H1876, 10 nM, 168 hrs) was 2.55. The “Log2_FC ASCL1” value (NCI-H2171, 0.1 nM, 24 hrs) was −0.14, the “Log2_FC GRP” value (NCI-H2171, 0.1 nM, 24 hrs) was 0.01 and the “Log2_FC NOTCH1” value (NCI-H2171, 0.1 nM, 24 hrs) was 0.49. For the same molecule, the “Log2_FC ASCL1” value (NCI-H2171, 0.1 nM, 96 hrs) was −0.29, the “Log2_FC GRP” value (NCI-H2171, 0.1 nM, 96 hrs) was −1.96 and the “Log2_FC NOTCH1” value (NCI-H2171, 0.1 nM, 96 hrs) was 0.95. For the same molecule, the “Log2_FC ASCL1” value (NCI-H2171, 0.1 nM, 168 hrs) was −0.16, the “Log2_FC GRP” value (NCI-H2171, 0.1 nM, 168 hrs) was −1.11 and the “Log2_FC NOTCH1” value (NCI-H2171, 0.1 nM, 168 hrs) was 0.90. For the same molecule, the “Log2_FC ASCL1” value (NCI-H2171, 1 nM, 24 hrs) was −0.06, the “Log2_FC NOTCH1” value (NCI-H2171, 1 nM, 24 hrs) was 0.75 and the “Log2_FC ASCL1” value (NCI-H2171, 1 nM, 96 hrs) was −0.43. The “Log2_FC GRP” value (NCI-H2171, 1 nM, 96 hrs) was −1.17, the “Log2_FC NOTCH1” value (NCI-H2171, 1 nM, 96 hrs) was 1.17 and the “Log2_FC ASCL1” value (NCI-H2171, 1 nM, 168 hrs) was −0.02. For the same molecule, the “Log2_FC GRP” value (NCI-H2171, 1 nM, 168 hrs) was −1.56, the “Log2_FC NOTCH1” value (NCI-H2171, 1 nM, 168 hrs) was 1.41 and the “Log2_FC ASCL1” value (NCI-H2171, 10 nM, 24 hrs) was −0.16. The “Log2_FC GRP” value (NCI-H2171, 10 nM, 24 hrs) was −0.37, the “Log2_FC NOTCH1” value (NCI-H2171, 10 nM, 24 hrs) was 0.82 and the “Log2_FC ASCL1” value (NCI-H2171, 10 nM, 96 hrs) was −0.27. For the same molecule, the “Log2_FC GRP” value (NCI-H2171, 10 nM, 96 hrs) was −0.46, the “Log2_FC NOTCH1” value (NCI-H2171, 10 nM, 96 hrs) was 1.22 and the “Log2_FC ASCL1” value (NCI-H2171, 10 nM, 168 hrs) was −0.11. The “Log2_FC GRP” value (NCI-H2171, 10 nM, 168 hrs) was −0.87, the “Log2_FC NOTCH1” value (NCI-H2171, 10 nM, 168 hrs) was 1.63 and the “Log2_FC ASCL1” value [1] was −0.11. The “Log2_FC GRP” value [1] was 0.17, the “Log2_FC ASCL1” value [2] was 0.11 and the “Log2_FC GRP” value [2] was 0.74. For the same molecule, the “Log2_FC ASCL1” value [3] was −0.36, the “Log2_FC GRP” value [3] was 0.43 and the “Log2_FC ASCL1” value [4] was 0.52. The “Log2_FC GRP” value [4] was 1.20, the “Log2_FC ASCL1” value [5] was 0.38 and the “Log2_FC GRP” value [5] was 0.83. The “Log2_FC ASCL1” value [6] was −0.33, the “Log2_FC GRP” value [6] was 0.16 and the “Log2_FC ASCL1” value [7] was −0.07. For the same molecule, the “Log2_FC GRP” value [7] was −0.10, the “Log2_FC ASCL1” value [8] was 0.22 and the “Log2_FC GRP” value [8] was 0.56. The “Log2_FC ASCL1” value [9] was −0.50 and the “Log2_FC GRP” value [9] was −0.06.

From patent US20190256929A1, “PHARMACODYNAMIC BIOMARKERS FOR PERSONALIZED CANCER CARE USING EPIGENETIC MODIFYING AGENTS” (ORYZON GENOMICS, S.A., priority 2016, published 2019)
